The first experiment deals with DLD-1 BRCA2−/− cells. As to the kind of experiment: Homologous recombination synthetic lethal inhibition of proliferation, DLD-1 BRCA2-/- (Cell Titre Glo 3D). It counts as cell-based. Particulars: Homo sapiens, DLD-1, DLD-1 BRCA2-/- proliferation; column head only partly shown; read-out: POLQ PD Prolif Lumin (converted). The essentials:
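Wild-type DLD-1 serves as the control for non-specific toxicity, and BRCA2-null DLD-1 as the homologous-recombination-deficient line. Both grew with compound from 10 μM down to 0.51 nM, re-dosed after 6 days. Luminescent ATP content (CellTiter-Glo 3D) was read after 7 or 12 days, respectively, to give IC50 values.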
Consider `Cc1ccnc(Cn2c(-c3ccc(C(=O)N4CCNC(=O)C4)cc3Cl)nc3c(OC4(C)CC4)ncnc32)c1` [Example T287, 4-(3-chloro-4-(6-(1-methylcyclopropoxy)-9-((4-methylpyridin-2-yl)methyl)-9H-purin-8-yl)benzoyl)piperazin-2-one], for which the IC50 is more than 7940 nM.
As to `CC1(Oc2ncnc3c2nc(-c2ccc(CCCCC(=O)O)cc2Cl)n3Cc2cccc(Cl)c2)CC1` [Example T289, 5-(3-chloro-4-(9-(3-chlorobenzyl)-6-(1-methylcyclopropoxy)-9H-purin-8-yl)phenyl)pentanoic acid], the IC50 was 126 nM.
With `C[C@H](CCOc1cccc(-c2nc3c(OC4(C)CC4)ncnc3n2Cc2cccc(Cl)c2)c1Cl)C(=O)O` [Example T297, (R)-4-(2-chloro-3-(9-(3-chlorobenzyl)-6-(1-methylcyclopropoxy)-9H-purin-8-yl)phenoxy)-2-methylbutanoic acid], the IC50 is 63.1 nM.

Still in this experiment, the particulars now being: Homo sapiens, DLD-1, first proliferation column (c5), taken as DLD-1 BRCA2-/-; read-out: POLQ PD Prolif Lumin (converted).
For `CC1(Oc2ncnc3c2nc(-c2cccc(OCC(C)(C)C(=O)O)c2Cl)n3Cc2cccc(Cl)c2)CC1` [Example T298, 3-(2-chloro-3-(9-(3-chlorobenzyl)-6-(1-methylcyclopropoxy)-9H-purin-8-yl)phenoxy)-2,2-dimethylpropanoic acid], the IC50 is 631 nM.
Turning to `CC1(Oc2ncnc3c2nc(-c2ccc(OCC[C@@](C)(O)C(=O)O)cc2Cl)n3Cc2cccc(Cl)c2)CC1` [Example T301, (R)-4-(3-chloro-4-(9-(3-chlorobenzyl)-6-(1-methylcyclopropoxy)-9H-purin-8-yl)phenoxy)-2-hydroxy-2-methylbutanoic acid], the IC50 was 2510 nM.
Regarding `CC1(Oc2ncnc3c2nc(-c2ccc(OCCOCCC(=O)O)cc2Cl)n3Cc2cccc(Cl)c2)CC1` [Example T303, 3-(2-(3-chloro-4-(9-(3-chlorobenzyl)-6-(1-methylcyclopropoxy)-9H-purin-8-yl)phenoxy)ethoxy)propanoic acid], the IC50 was 126 nM.
For the compound `C[C@@H](OCCOc1ccc(-c2nc3c(OC4(C)CC4)ncnc3n2Cc2cccc(Cl)c2)c(Cl)c1)C(=O)O` [Example T306, (R)-2-(2-(3-chloro-4-(9-(3-chlorobenzyl)-6-(1-methylcyclopropoxy)-9H-purin-8-yl)phenoxy)ethoxy)propanoic acid], the IC50 is 794 nM.
On the same count and under the same terms, the value for `Cc1ccnc(Cn2c(-c3ccc(C(=O)N4CCCC4)cc3Cl)nc3c(OC4(C)CC4)ncnc32)c1` [Example T309, (3-chloro-4-(6-(1-methylcyclopropoxy)-9-((4-methylpyridin-2-yl)methyl)-9H-purin-8-yl)phenyl)(pyrrolidin-1-yl)methanone] was 631 nM.
The same measure, in the same setting: the value for `Cc1ccnc(Cn2c(-c3ccc(OCC(=O)N4CCC4)cc3Cl)nc3c(OC4(C)CC4)ncnc32)c1` [Example T312, 1-(azetidin-1-yl)-2-(3-chloro-4-(6-(1-methylcyclopropoxy)-9-((4-methylpyridin-2-yl)methyl)-9H-purin-8-yl)phenoxy)ethan-1-one] was 200 nM.
With `Cc1ccnc(Cn2c(-c3ccc(OCCN4CCC4=O)cc3Cl)nc3c(OC4(C)CC4)ncnc32)c1` [Example T313, 1-(2-(3-chloro-4-(6-(1-methylcyclopropoxy)-9-((4-methylpyridin-2-yl)methyl)-9H-purin-8-yl)phenoxy)ethyl)azetidin-2-one], the IC50 was 200 nM.
In the case of `Cc1ccnc(Cn2c(-c3ccc(C(=O)N4CC(C)(O)C4)cc3Cl)nc3c(OC4(C)CC4)ncnc32)c1` [Example T314, (3-chloro-4-(6-(1-methylcyclopropoxy)-9-((4-methylpyridin-2-yl)methyl)-9H-purin-8-yl)phenyl)(3-hydroxy-3-methylazetidin-1-yl)methanone], the IC50 was 1260 nM.
Take `Cc1ccnc(Cn2c(-c3ccc(C(=O)N4CCOCC4)cc3Cl)nc3c(OC4(C)CC4)ncnc32)c1` [Example T315, (3-chloro-4-(6-(1-methylcyclopropoxy)-9-((4-methylpyridin-2-yl)methyl)-9H-purin-8-yl)phenyl)(morpholino)methanone]: the IC50 is 1580 nM.
Consider `Cc1ccnc(Cn2c(-c3ccc(C(=O)N[C@@H]4CCOC4)cc3Cl)nc3c(OC4(C)CC4)ncnc32)c1` [Example T316, (R)-3-chloro-4-(6-(1-methylcyclopropoxy)-9-((4-methylpyridin-2-yl)methyl)-9H-purin-8-yl)-N-(tetrahydrofuran-3-yl)benzamide], for which the IC50 is 631 nM.
Same read-out and setting: the value for `Cc1ccnc(Cn2c(-c3ccc(C(=O)NC4(C)COC4)cc3Cl)nc3c(OC4(C)CC4)ncnc32)c1` [Example T317, 3-chloro-4-(6-(1-methylcyclopropoxy)-9-((4-methylpyridin-2-yl)methyl)-9H-purin-8-yl)-N-(3-methyloxetan-3-yl)benzamide] was 1000 nM; that for `Cc1ccnc(Cn2c(-c3ccc(OCC(=O)NC4CC4)cc3Cl)nc3c(OC4(C)CC4)ncnc32)c1` [Example T318, 2-(3-chloro-4-(6-(1-methylcyclopropoxy)-9-((4-methylpyridin-2-yl)methyl)-9H-purin-8-yl)phenoxy)-N-cyclopropylacetamide] was 398 nM; that for `Cc1ccnc(Cn2c(-c3ccc(C(=O)NC4CC(O)C4)cc3Cl)nc3c(OC4(C)CC4)ncnc32)c1` (stereo not shown) [Example T319, 3-chloro-N-(3-hydroxycyclobutyl)-4-(6-(1-methylcyclopropoxy)-9-((4-methylpyridin-2-yl)methyl)-9H-purin-8-yl)benzamide] was 2510 nM.
For `Cc1ccnc(Cn2c(-c3ccc(C(=O)N(C)C4COC4)cc3Cl)nc3c(OC4(C)CC4)ncnc32)c1` [Example T320, 3-chloro-N-methyl-4-(6-(1-methylcyclopropoxy)-9-((4-methylpyridin-2-yl)methyl)-9H-purin-8-yl)-N-(oxetan-3-yl)benzamide], the IC50 is 3160 nM.
Still for that read-out and setting: the value for `Cc1ccnc(Cn2c(-c3ccc(OCC(=O)N4CC(O)C4)cc3Cl)nc3c(OC4(C)CC4)ncnc32)c1` [Example T322, 2-(3-chloro-4-(6-(1-methylcyclopropoxy)-9-((4-methylpyridin-2-yl)methyl)-9H-purin-8-yl)phenoxy)-1-(3-hydroxyazetidin-1-yl)ethan-1-one] was 631 nM; that for `Cc1ccnc(Cn2c(-c3ccc(OCC(=O)NC4COC4)cc3Cl)nc3c(OC4(C)CC4)ncnc32)c1` [Example T323, 2-(3-chloro-4-(6-(1-methylcyclopropoxy)-9-((4-methylpyridin-2-yl)methyl)-9H-purin-8-yl)phenoxy)-N-(oxetan-3-yl)acetamide] was 200 nM.
As to `Cc1ccnc(Cn2c(-c3ccc(OC[C@@H]4CNC(=O)CO4)cc3Cl)nc3c(OC4(C)CC4)ncnc32)c1` [Example T324, (S)-6-((3-chloro-4-(6-(1-methylcyclopropoxy)-9-((4-methylpyridin-2-yl)methyl)-9H-purin-8-yl)phenoxy)methyl)morpholin-3-one], the IC50 was 398 nM.
In the case of `CC1(Oc2ncnc3c2nc(-c2cccc(OCCCC(=O)NS(C)(=O)=O)c2Cl)n3Cc2cccc(Cl)c2)CC1` [Example T325, 4-(2-chloro-3-(9-(3-chlorobenzyl)-6-(1-methylcyclopropoxy)-9H-purin-8-yl)phenoxy)-N-(methylsulfonyl)butanamide], the IC50 is 316 nM.
Still for that read-out and setting: as for `Cc1ccnc(Cn2c(-c3ccc(OCC(=O)NC[C@H](C)F)cc3Cl)nc3c(OC4(C)CC4)ncnc32)c1` [Example T327, (S)-2-(3-chloro-4-(6-(1-methylcyclopropoxy)-9-((4-methylpyridin-2-yl)methyl)-9H-purin-8-yl)phenoxy)-N-(2-fluoropropyl)acetamide], the figure is 200 nM.

The values above are taken from US20250195530A1, “POLQ INHIBITORS” (ASTRAZENECA AB, priority 2022, published 2025).
